This is an account of results in patent US9783534B2 (priority 2013, dated 2017).

Like-named read-outs stand apart in the source and are kept apart here.

One data set relates to Phytophthora infestans. The class given is in vivo. The note with it: tomato, protective, 50 g a.i./liter SC formulation, evaluation 3 days after inoculation.
Another data set concerns Plasmopara viticola. Put plainly: Plasmopara test (vine)/protective. The class given is in vivo. As to conditions: protective, 50 g a.i./liter SC formulation, evaluation 6 days after inoculation. From the text: To produce a suitable active ingredient preparation, formulations are suspended with water and diluted to the desired concentration. In the present case, both the known amorphous modification of the substance 2-{3-[2-(1-{[3,5-bis(difluoromethyl)-1H-pyrazol-1-yl]acetyl}piperidin-4-yl)-1,3-thiazol-4-yl]-4,5-dihydro-1,2-oxazol-5-yl}-3-chlorophenylmethanesulphonate (form A), as well as the inventive crystalline form of the substance 2-{3-[2-(1-{[3,5-bis(difluoromethyl)-1H-pyrazol-1-yl]acetyl}piperidin-4-yl)-1,3-thiazol-4-yl]-4,5-dihydro-1,2-oxazol-5-yl}-3-chlorophenylmethanesulphonate (form B) are used as 50 g a.i./liter of SC formulation.
To test for protective effectiveness, young plants are sprayed with the active ingredient preparation at the stated application rate. After initial drying of the spray coating, the plants are inoculated with an aqueous spore suspension of Plasmopara viticola and then remain in an incubation cabin for 1 day at approx. 20° C. and 100% relative atmospheric humidity. The plants are then placed in a greenhouse at approx. 21° C. and approx. 90% atmospheric humidity for 4 days. The plants are then moistened and placed in an incubation cabin for 1 day.
Evaluation is carried out 6 days after the inoculation. 0% here means an efficacy which corresponds to that of the control, whereas an efficacy of 100% means that no infection is observed.

The nature of data set [1]: Stability of the solid form on storage. As to conditions: prolonged storage. The class given is physicochemical.
[2] abbreviates: application rate 0.05 ppm active ingredient.
Where [3] appears, read: application rate 0.1 ppm active ingredient.
Setting [4] is: application rate 0.2 ppm active ingredient.

Regarding `CS(=O)(=O)Oc1cccc(Cl)c1C1CC(c2csc(C3CCN(C(=O)Cn4nc(C(F)F)cc4C(F)F)CC3)n2)=NO1` (single isomer, unassigned) [Form A, 2-{3-[2-(1-{[3,5-bis(difluoromethyl)-1H-pyrazol-1-yl]acetyl}piperidin-4-yl)-1,3-thiazol-4-yl]-4,5-dihydro-1,2-oxazol-5-yl}-3-chlorophenylmethanesulphonate, reference compound], the Efficacy in % in the data set on Phytophthora infestans (setting [2]) amounted to 0%; in the data set with Phytophthora infestans (setting [3]), 15%; in the data set on Phytophthora infestans (setting [4]), 40%; with Plasmopara viticola (setting [2]) it was 0%; in the data set on Plasmopara viticola (setting [3]) it was 6%; with Plasmopara viticola (setting [4]) it was 35%.

As for `CS(=O)(=O)Oc1cccc(Cl)c1C1CC(c2csc(C3CCN(C(=O)Cn4nc(C(F)F)cc4C(F)F)CC3)n2)=NO1` (single isomer, unassigned) [Form B, 2-{3-[2-(1-{[3,5-bis(difluoromethyl)-1H-pyrazol-1-yl]acetyl}piperidin-4-yl)-1,3-thiazol-4-yl]-4,5-dihydro-1,2-oxazol-5-yl}-3-chlorophenylmethanesulphonate], the Efficacy in % with Phytophthora infestans (setting [2]) was found to be 40%; with Phytophthora infestans (setting [3]) it was 60%; in the data set with Phytophthora infestans (setting [4]), 76%; in the data set on Plasmopara viticola (setting [2]), 0%; in the data set with Plasmopara viticola (setting [3]) it was 35%; in the data set with Plasmopara viticola (setting [4]) it was 75%. The “thermodynamic stability / conversion into another form” value in data set [1] is recorded as “not converted into another form even on prolonged storage”.
